“And” between values parts separate entries of the source, which are not always exact repeats. Equal entries are not always repeated.
Legend:
[1] = target: T1, CYP2A6 (Homo sapiens, UniProt P11509); assay: Inhibition of CYP2A6 activity in pooled human liver microsomes (coumarin 8 μM to 7-hydroxy coumarin); assay type: in vitro ADME
T1 sequence (P11509 1-494): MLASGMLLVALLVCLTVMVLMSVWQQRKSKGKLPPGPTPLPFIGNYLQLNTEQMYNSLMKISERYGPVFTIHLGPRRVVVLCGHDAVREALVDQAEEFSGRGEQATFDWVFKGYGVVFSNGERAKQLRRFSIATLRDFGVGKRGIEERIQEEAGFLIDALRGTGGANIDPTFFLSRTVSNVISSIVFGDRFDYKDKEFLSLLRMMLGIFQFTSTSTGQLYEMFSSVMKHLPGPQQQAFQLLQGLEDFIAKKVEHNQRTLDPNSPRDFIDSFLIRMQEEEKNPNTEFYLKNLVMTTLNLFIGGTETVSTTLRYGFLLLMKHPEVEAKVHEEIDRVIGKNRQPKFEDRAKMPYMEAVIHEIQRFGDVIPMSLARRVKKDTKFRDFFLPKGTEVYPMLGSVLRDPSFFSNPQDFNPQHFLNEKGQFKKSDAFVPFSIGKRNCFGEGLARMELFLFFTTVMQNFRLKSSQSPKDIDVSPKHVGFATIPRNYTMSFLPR
Experimental: All other incubations were for 30 minutes.
Four replicates were performed.
Two replicates were performed.

[2] = Metaxalone turnover in pooled human liver microsomes without inhibitor (LC-MS/MS); conditions: for % Turnover Mean / Mean Conc. / % Turnover / Conc. / Mean metaxalone disappearance: 1 mg/mL microsomal protein; for % Turnover Mean / Mean Conc. / % Turnover / Conc.: 60 min, no inhibitor; for % Turnover / Conc.: single replicates
Experimental: Stocks were diluted daily in the appropriate buffers such that the final organic solvent concentration was <1%.
The reactions, in 0.1 M phosphate buffer, pH 7.4, were initiated by addition of 1 mM NADPH. Negative controls (no NADPH and heat-treated microsomes) were included to account for any non-enzymatic or non-NADPH dependent reactions. The reactions were terminated at the appropriate time points by addition of 1 volume (relative to total reaction volume) of methanol. The samples were centrifuged at approximately 3000 rpm and the clear supernatant was transferred to a clean tube and analyzed by the LC-MS/MS method described above.

[3] = target: T2, CYP2C8 (Homo sapiens, UniProt P10632); assay: Metabolism of metaxalone by expressed recombinant human CYP2C8 at 5 or 20 pmol (Example 4); conditions: for % Turnover Mean / [metaxalone] Mean / % Turnover % / [metaxalone]: 60 min; for % Turnover % / [metaxalone]: single replicates
T2 sequence (P10632 1-490): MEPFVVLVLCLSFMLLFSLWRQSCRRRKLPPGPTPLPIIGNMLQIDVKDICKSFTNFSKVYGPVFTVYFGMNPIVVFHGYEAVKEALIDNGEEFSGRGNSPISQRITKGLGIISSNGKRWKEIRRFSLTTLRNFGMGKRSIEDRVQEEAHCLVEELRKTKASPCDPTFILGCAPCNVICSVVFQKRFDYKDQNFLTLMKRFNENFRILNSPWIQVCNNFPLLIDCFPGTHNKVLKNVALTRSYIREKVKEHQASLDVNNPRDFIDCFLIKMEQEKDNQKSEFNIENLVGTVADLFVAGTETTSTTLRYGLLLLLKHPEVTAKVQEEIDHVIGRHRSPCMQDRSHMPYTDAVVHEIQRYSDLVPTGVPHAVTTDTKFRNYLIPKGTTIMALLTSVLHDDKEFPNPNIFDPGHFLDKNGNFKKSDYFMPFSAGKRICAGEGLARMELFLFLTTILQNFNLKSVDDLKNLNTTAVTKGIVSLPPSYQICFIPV

[4] = target: T3, human CYP1A2 (Homo sapiens, UniProt P05177); assay: Metabolism of metaxalone by expressed recombinant human CYP1A2 (disappearance of metaxalone, HPLC; Example 1); conditions: 30 min;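 also: recombinant CYP1A2 microsomes (10 pmol P450) in Tris buffer containing 1% methanol, reactions driven by an NADPH regenerating system, 0.5 mL incubations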
T3 sequence (P05177 2-516 limits assumed): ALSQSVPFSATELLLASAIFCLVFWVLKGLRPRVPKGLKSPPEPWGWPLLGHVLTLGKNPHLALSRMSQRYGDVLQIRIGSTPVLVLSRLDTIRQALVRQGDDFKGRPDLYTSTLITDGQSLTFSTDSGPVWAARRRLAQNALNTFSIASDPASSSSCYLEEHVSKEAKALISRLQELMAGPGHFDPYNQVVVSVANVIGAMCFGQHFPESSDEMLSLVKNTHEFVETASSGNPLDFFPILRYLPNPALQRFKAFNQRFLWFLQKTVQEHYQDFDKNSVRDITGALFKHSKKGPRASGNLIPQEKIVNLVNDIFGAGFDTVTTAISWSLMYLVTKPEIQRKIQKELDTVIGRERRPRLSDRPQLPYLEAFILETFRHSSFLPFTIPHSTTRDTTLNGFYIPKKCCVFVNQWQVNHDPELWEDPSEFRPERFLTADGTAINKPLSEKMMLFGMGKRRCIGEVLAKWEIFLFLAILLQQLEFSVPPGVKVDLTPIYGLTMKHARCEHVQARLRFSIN
Experimental: Commercially available microsomes from baculovirus-infected insect cells containing singly-expressed recombinant wild-type (*1 allele) human CYP enzymes and cDNA-expressed human cytochrome p450 oxidoreductase [BD SUPERSOMES Enzymes; BD Biosciences Discovery Labware (Woburn, Mass.)] were used.
After a 5-minute pre-incubation, an NADPH regenerating system (NRS) was added to the incubation mixtures to initiate reactions, with a final incubation volume of 0.5 mL. Incubations were continued for 30 minutes, and then terminated, except for those for CYP2C19, which were incubated for 36 minutes prior to termination.
Matrix controls were performed to determine the background signal from the matrix components (microsomes (10 pmol p450), 01N Tris buffer, NRS, and 1% methanol). […] After a 5-minute pre-incubation, 2% sodium bicarbonate solution was added to the incubation mixtures. Incubation was for 30 minutes at a final volume of 0.5 mL. Matrix and metabolic negative controls were terminated by adding an equal volume of methanol. […] Analysis of samples was subsequent to storage at −70° C.

[5] = 0.75 μM metaxalone, 5 pmol cyp, listed as Metaxalone
[6] = 0.75 μM metaxalone, 20 pmol cyp
[7] = 0.75 μM metaxalone, 20 pmol cyp, listed as Metaxalone
[8] = 7.5 μM metaxalone, 5 pmol cyp, listed as Metaxalone
[9] = 7.5 μM metaxalone, 20 pmol cyp, listed as Metaxalone

Cc1cc(C)cc(OCC2CNC(=O)O2)c1 (stereo not shown) [metaxalone, 5-[(3,5-dimethylphenoxy)methyl]-2-oxazolidinone]
inhibition of CYP activity at a statistically significant level ([1]; 0.3-100 μM metaxalone): no tested concentration of metaxalone inhibited activity
Inhibitor ([1]; CYP isozyme 2A6, summary of studies): 0
Percent of VC ([1]; metaxalone 0.3 μM): 96.9%
Specific Activity Individual ([1]; metaxalone 0.3 μM): 430 pmol/min/mg protein and 398 pmol/min/mg protein and 410 pmol/min/mg protein
Specific Activity Mean ± SD ([1]; metaxalone 0.3 μM): 413 ± 16.0 pmol/min/mg protein
Percent of VC ([1]; metaxalone 1 μM): 95.7%
Specific Activity Individual ([1]; metaxalone 1 μM): 399 pmol/min/mg protein and 409 pmol/min/mg protein and 414 pmol/min/mg protein
Specific Activity Mean ± SD ([1]; metaxalone 1 μM): 407 ± 7.36 pmol/min/mg protein
Percent of VC ([1]; metaxalone 3 μM): 102%
Specific Activity Individual ([1]; metaxalone 3 μM): 420 pmol/min/mg protein and 453 pmol/min/mg protein and 435 pmol/min/mg protein
Specific Activity Mean ± SD ([1]; metaxalone 3 μM): 436 ± 16.1 pmol/min/mg protein
Percent of VC ([1]; metaxalone 30 μM): 107%
Specific Activity Individual ([1]; metaxalone 30 μM): 433 pmol/min/mg protein and 461 pmol/min/mg protein and 471 pmol/min/mg protein
Specific Activity Mean ± SD ([1]; metaxalone 30 μM): 455 ± 19.7 pmol/min/mg protein
Percent of VC ([1]; metaxalone 100 μM): 94.8%
Specific Activity Individual ([1]; metaxalone 100 μM): 395 pmol/min/mg protein and 393 pmol/min/mg protein and 423 pmol/min/mg protein
Specific Activity Mean ± SD ([1]; metaxalone 100 μM): 404 ± 16.6 pmol/min/mg protein
% Turnover Mean ([2]; 0.75 μM metaxalone): 29.8%
Mean Conc. ([2]; 0.75 μM metaxalone): 0.542 µM
% Turnover ([2]; 0.75 μM metaxalone): 30.5% and 27.3% and 31.5%
Conc. ([2]; 0.75 μM metaxalone): 0.536 µM and 0.561 µM and 0.529 µM
Mean metaxalone disappearance ([2]; 0.75 μM metaxalone, 60 minutes): 29.8±1.3%
% Turnover Mean ([2]; 7.5 μM metaxalone): 24.6%
Mean Conc. ([2]; 7.5 μM metaxalone): 6.42 µM
% Turnover ([2]; 7.5 μM metaxalone): 24.8% and 23.9% and 25.1%
Conc. ([2]; 7.5 μM metaxalone): 6.40 µM and 6.48 µM and 6.38 µM
Mean metaxalone disappearance ([2]; 7.5 μM metaxalone, 60 minutes): 24.6±0.3%
maximum turnover ([2]; 60 minutes, 1 mg/mL protein, NADPH-dependent): 38.0%
% Turnover Mean ([3]; 0.75 μM metaxalone, 5 pmol cyp): −9.3%
[metaxalone] Mean ([3]; 0.75 μM metaxalone, 5 pmol cyp): 0.865 µM
% Turnover % [3, 5]: −2.6% and −10.9% and −14.3%
[metaxalone] [3, 5]: 0.812 µM and 0.877 µM and 0.905 µM
% Turnover Mean [3, 6]: 2.9%
[metaxalone] Mean [3, 6]: 0.768 µM
% Turnover % [3, 7]: 0.19% and 6.1% and 2.5%
[metaxalone] [3, 7]: 0.790 µM and 0.743 µM and 0.771 µM
% Turnover Mean ([3]; 7.5 μM metaxalone, 5 pmol cyp): 3.0%
[metaxalone] Mean ([3]; 7.5 μM metaxalone, 5 pmol cyp): 8.20 µM
% Turnover % ([3]; 7.5 μM metaxalone, 5 pmol cyp): −1.6%
% Turnover % [3, 8]: 0.21%
[metaxalone] [3, 8]: 7.58 µM and 8.43 µM and 8.58 µM
% Turnover Mean ([3]; 7.5 μM metaxalone, 20 pmol cyp): 9.3%
[metaxalone] Mean ([3]; 7.5 μM metaxalone, 20 pmol cyp): 7.66 µM
% Turnover % [3, 9]: 4.3% and 10.2% and 13.4%
[metaxalone] [3, 9]: 8.09 µM and 7.59 µM and 7.31 µM
Substrate ([3]; CYP isozyme 2C8, summary of studies): +
Metaxalone Present Adjusted Individual ([4]; metaxalone 0.5 μM): 0.302 µM and 0.440 µM and 0.315 µM
Metaxalone Present Adjusted Mean ± SD ([4]; metaxalone 0.5 μM): 0.352 ± 0.0761 µM
Metaxalone Present Raw ([4]; metaxalone 0.5 μM): 0.1509 µM and 0.2198 µM and 0.1573 µM
Percent of Metabolic Negative Control Individual ([4]; metaxalone 0.5 μM): 77.1% and 112% and 80.4%
Percent of Metabolic Negative Control Mean ± SD ([4]; metaxalone 0.5 μM): 89.9 ± 19.4%
Metaxalone Present Adjusted Individual ([4]; metaxalone 2.5 μM): 1.05 µM and 1.06 µM and 1.08 µM
Metaxalone Present Adjusted Mean ± SD ([4]; metaxalone 2.5 μM): 1.07 ± 0.0167 µM
Metaxalone Present Raw ([4]; metaxalone 2.5 μM): 0.527 µM and 0.5291 µM and 0.5423 µM
Percent of Metabolic Negative Control Individual ([4]; metaxalone 2.5 μM): 79.5% and 79.8% and 81.8%
Percent of Metabolic Negative Control Mean ± SD ([4]; metaxalone 2.5 μM): 80.4 ± 1.26%
Metaxalone Present Adjusted Individual ([4]; metaxalone 25 μM): 16.4 μM (2×) and 17.0 μM
Metaxalone Present Adjusted Mean ± SD ([4]; metaxalone 25 μM): 16.6 ± 0.337 µM
Metaxalone Present Raw ([4]; metaxalone 25 μM): 8.205 µM and 8.192 µM and 8.49 µM
Percent of Metabolic Negative Control Individual ([4]; metaxalone 25 μM): 82.8% and 82.6% and 85.6%
Percent of Metabolic Negative Control Mean ± SD ([4]; metaxalone 25 μM): 83.7 ± 1.70%

— patent publication US20080292584A1 (priority 2005, published 2008)
